In US20250197865A1, “PHARMACEUTICAL COMPOSITION FOR TREATMENT OR PREVENTION OF FIBROTIC DISEASE” (KYUSHU UNIVERSITY, NATIONAL UNIVERSITY CORPORATION, priority 2022, published 2025):

Legend:
Type in all cases: cell-based, mouse
TGFβ/SMAD pathway = test: SIS3 treatment of myofibroblasts from carbon tetrachloride-induced fibrotic liver, mRNA by real-time RT-PCR; conditions: myofibroblasts from CCl4 liver fibrosis model; SIS3 3 μM; P4HA3, Col1α1, Col1α2, Col3α1; FIG. 26b
Excerpt: Hepatic stellate cells, which are involved in liver fibrosis, are known to be activated by TGFβ (Fabregat, I. et al., FEBS J., 283:2219-2232 (2016)). Therefore, the effects of TGFβ and its specific inhibitor SIS3, as well as an inhibitor of SMAD3 involved in signal transduction of the TGFβ pathway (si SMAD3), on the mRNA expression of fibrosis-related factors in […] were examined. SIS3 (CAS number: 1009104-85-1) was used under catalog number 15945 from Cayman Chemical Company. SIS3 was added to the culture medium at a final concentration of 3 μM and administered. Si SMAD3 was used as a knockdown reagent for SMAD3. si SMAD3 was used under catalog number 4390771 (Assay ID: s69495) from ThermoFisher Scientific. si SMAD3 was administered to cultured cells in the same manner as in Examples 3, 7, and 13. LX-2, a cultured hepatic stellate cell line, was cultured in DMEM supplemented with 2% FBS.
Bar graph showing the mRNA expression levels of P4HA3, 1α1 collagen (Col1α1), 1α2 collagen (Col1α2), and 3α1 collagen (Col3α1) in myofibroblasts isolated from liver tissue of a mouse model of liver damage and liver fibrosis caused by carbon tetrachloride administration and treated with SIS3, an inhibitor of the TGFβ/SMAD pathway. […] The number of samples for each group was 5.

Hsp47 mRNA = test: siRNA treatment of myofibroblasts from carbon tetrachloride-induced fibrotic liver, Hsp47 mRNA by real-time RT-PCR
Procedure: (§1) The mRNA expression levels of P4HA3 etc. in the examples of the present specification were quantified as follows. The concentration of purified RNA was determined using a microspectrophotometer DS-11 (DeNovix), and reverse transcription to cDNA was performed using a High Capacity cDNA Reverse Transcription Kit (Applied Biosystems). Quantification of mRNA was performed according to the protocol of Luna Universal qPCR Master Mix (New England BioLabs), with DNA polymerase activation at 95° C. for 60 seconds, followed by 45 cycles of cDNA denaturation at 95° C. for 15 seconds and extension at 60° C. for 30 seconds. Analysis was performed by the AACt method using GAPDH as an internal standard. Mouse Cyp7al probe was purchased from Applied Biosystems. […]
As in Example 3, the effect of suppressing P4HA3 mRNA expression on the mRNA expression of other fibrosis-related factors was examined in cultured myofibroblasts isolated from the liver 4 weeks after the start of carbon tetrachloride administration. […] After that, the purity of the isolated myofibroblasts was measured using FACS verse, and almost all of the CD45-negative cells after MACS were positive for α-SMA, a myofibroblast marker, and almost no contamination with blood cells was observed. […]

P4HA3 mRNA [1] = test: siRNA treatment of myofibroblasts from carbon tetrachloride-induced fibrotic liver, P4HA3 mRNA by real-time RT-PCR
Procedure: (§2) The mRNA expression levels of P4HA3 etc. in the examples of the present specification were quantified as follows. The concentration of purified RNA was determined using a microspectrophotometer DS-11 (DeNovix), and reverse transcription to cDNA was performed using a High Capacity cDNA Reverse Transcription Kit (Applied Biosystems). Quantification of mRNA was performed according to the protocol of Luna Universal qPCR Master Mix (New England BioLabs), with DNA polymerase activation at 95° C. for 60 seconds, followed by 45 cycles of cDNA denaturation at 95° C. for 15 seconds and extension at 60° C. for 30 seconds. Analysis was performed by the AACt method using GAPDH as an internal standard. Mouse Cyp7al probe was purchased from Applied Biosystems. Primers and probes for mouse α-smooth muscle actin (α-SMA), CD68, 1α1 collagen (Col1α1), 1α2 collagen (Col1α2), 1α3 collagen (Col1α3), 6α1 collagen (Col6α1), 8α1 collagen (Co81α1), GAPDH (glyceraldehyde-3-phosphate dehydrogenase), heat shock protein 47 (Hsp47), prolyl 4-hydroxylase alphal subunit (P4HA1), prolyl 4-hydroxylase alpha2 subunit (P4HA2), and prolyl 4-hydroxylase alpha3 subunit (P4HA3) were purchased from Sigma-Aldrich.
As in Example 3, the effect of suppressing P4HA3 mRNA expression on the mRNA expression of other fibrosis-related factors was examined in cultured myofibroblasts isolated from the liver 4 weeks after the start of carbon tetrachloride administration. The liver was removed from a mouse model of carbon tetrachloride (CCl4)-induced fibrotic livers and divided into small pieces. After that, the liver pieces were washed with washing buffer [25 mM HEPES/[…]/HBSS(-)], and the cell solution containing myofibroblasts was collected by shaking the liver pieces three times for 30 min at 37° C. in . . . digestion buffer [0.1% Collagenase A/15 mM HEPES/HBSS(-)]. After that, blood cell components were removed with Red Blood Cell Lysis Buffer, and the cells were suspended in 10% FBS/1% Penicillin-Streptomycin/DMEM, and then seeded on a culture plate. After 6 hr, the medium was replaced to remove non-adherent cells and debris. After that, the cells were cultured overnight in a CO2 incubator, and non-adherent cells were again removed by washing with PBS, and adherent cells were collected using Accutase. After 20 min of reaction with CD45 antibody labeled with magnetic beads, CD45-positive blood cells were removed by MACS (magnetic cell sorting) using an LS column, and CD45-negative cells were collected as myofibroblasts. After that, the purity of the isolated myofibroblasts was measured using FACS verse, and almost all of the CD45-negative cells after MACS were positive for α-SMA, a myofibroblast marker, and almost no contamination with blood cells was observed. […]

P4HA3 mRNA [2] = test: P4HA3 knockdown in myofibroblasts from lungs of bleomycin-administered pulmonary fibrosis model mice, real-time RT-PCR; conditions: FIG. 11-2
Procedure: as §1
(§3) Next, the inventors investigated the effect of suppressing P4HA3 mRNA expression on the mRNA expression of other fibrosis-related factors. […] The quantification of mRNA expression levels of P4HA3, etc. in myofibroblasts after siRNA treatment was performed in the same manner as in Example 2.
From the bleomycin-administered pulmonary fibrosis model mouse prepared in the same manner as in Example 4, the lungs were removed 7 days after bleomycin administration. […] Quantification of the mRNA expression levels of Cd68, a blood cell marker, 1α1 collagen, a fibrosis-related factor, and P4HA3 was performed in the same manner as in Example 2. […]

P4HA3 mRNA [3] = test: P4HA3 knockdown by siRNA in myofibroblasts isolated from the infarcted area, real-time RT-PCR; conditions: siRNA 3.125 nM, versus si Ctrl, FIG. 4
Procedure: as §1, §3

[4] = tested on: 1α1, 3α1 and 14α1 collagen mRNA expression in myofibroblasts; test: Effect of P4HA3 knockdown on fibrosis-related factor mRNA in myofibroblasts from fibrotic lungs, real-time RT-PCR; conditions: myofibroblasts from pulmonary fibrosis model mice; versus si Ctrl; FIG. 11-2
[5] = tested on: periostin, 1α1 collagen and 3α1 collagen mRNA expression in myofibroblasts; test: Effect of P4HA3 knockdown on fibrosis-related factor mRNA in myofibroblasts isolated from the infarcted area, real-time RT-PCR; conditions: siRNA 3.125 nM, versus si Ctrl, FIG. 4
Procedure: as §2
Next, the inventors investigated the effect of suppressing P4HA3 mRNA expression on the mRNA expression of other fibrosis-related factors. Myofibroblasts from the infarcted area of myocardial infarction disease model mice were cultured as described above in Nakaya, M. et al. (2017). Briefly, 3 days after coronary artery ligation, the ventricles of treated mice were digested with PBS containing 0.1% collagenase A (Roche Diagnostics) and 0.1% trypsin (Sigma-Aldrich) at 37° C. with agitation. The cells were placed on plates containing 10% FBS/DMEM overnight, and then the medium was replaced to remove non-adherent cells. The attached cells were cultured for more than 6 days and used as myofibroblasts in the following experiments. […] The quantification of mRNA expression levels of P4HA3, etc. in myofibroblasts after siRNA treatment was performed in the same manner as in Example 2.

[6] = tested on: mRNA expression of fibrosis-related factors (collagens, elastin) in myofibroblasts; test: siRNA treatment of myofibroblasts from carbon tetrachloride-induced fibrotic liver, fibrosis-related factor mRNA by real-time RT-PCR
Procedure: as §2
As in Example 3, the effect of suppressing P4HA3 mRNA expression on the mRNA expression of other fibrosis-related factors was examined in cultured myofibroblasts isolated from the liver 4 weeks after the start of carbon tetrachloride administration. The liver was removed from a mouse model of carbon tetrachloride (CCl4)-induced fibrotic livers and divided into small pieces. After that, the liver pieces were washed with washing buffer [25 mM HEPES/[…]/HBSS(-)], and the cell solution containing myofibroblasts was collected by shaking the liver pieces three times for 30 min at 37° C. in . . . digestion buffer [0.1% Collagenase A/15 mM HEPES/HBSS(-)]. After that, blood cell components were removed with Red Blood Cell Lysis Buffer, and the cells were suspended in 10% FBS/1% Penicillin-Streptomycin/DMEM, and then seeded on a culture plate. After 6 hr, the medium was replaced to remove non-adherent cells and debris. After that, the cells were cultured overnight in a CO2 incubator, and non-adherent cells were again removed by washing with PBS, and adherent cells were collected using Accutase. After 20 min of reaction with CD45 antibody labeled with magnetic beads, CD45-positive blood cells were removed by MACS (magnetic cell sorting) using an LS column, and CD45-negative cells were collected as myofibroblasts. After that, the purity of the isolated myofibroblasts was measured using FACS verse, and almost all of the CD45-negative cells after MACS were positive for α-SMA, a myofibroblast marker, and almost no contamination with blood cells was observed. Si P4HA3 #1 and si P4HA3 #2, ThermoFisher Scientific catalog numbers 4390771 and 4390771 (Assay ID: s115723 and s115721), were added to the myofibroblast culture at a final concentration of 3.125 nM using Lipofectamine RNAiMAX (Invitrogen). In experiments in which si P4HA3 #2 was not used, such as in Example 3, si P4HA3 #1 was used as “si P4HA3”. For siRNA control experiments, Silencer Select Negative Control no. 1 siRNA (ThermoFisher Scientific, catalog number: 4390843) was used as si Ctrl. The nucleotide sequences of the sense and antisense strands of si P4HA3 #1 are listed in the sequence listing attached hereto as SEQ ID NOs: 1 and 2, respectively. The nucleotide sequences of the sense and antisense strands of si P4HA3 #2 are listed in the sequence listing attached hereto as SEQ ID NOs: 3 and 4, respectively.
Si Hsp47 and si P4HA3 #1 from Example 7 were used as knockdown reagents for Hsp47 and P4HA3, respectively. For si Hsp47, ThermoFisher Scientific catalog number 4390771 (Assay ID: s232335) was used. Separation of cell type fractions from livers collected 4 weeks after the start of carbon tetrachloride administration was performed in the same manner as in Example 6. […]

[7] = myofibroblasts from transiently fibrotic liver, siRNA 3.125 nM, versus si Ctrl, FIG. 9

COc1cc2c(cc1OC)CN(C(=O)/C=C/c1c(-c3ccccc3)n(C)c3ncccc13)CC2 [SIS3]
mRNA expression of fibrosis-related factors including P4HA3 (TGFβ/SMAD pathway): suppressed

si Hsp47: siRNA for mouse Hsp47, SEQ ID NOs: 12 and 13; ThermoFisher Scientific catalog 4390771, Assay ID s232335 (chain 1 CGGACAGGCCTGTACAACTTT; chain 2 AGTTGTACAGGCCTGTCCGGT; listed as DNA, chemistry not given here) [reference compound]
effect of suppressing the mRNA expression of each target gene, si Hsp47 compared with si P4HA3 (Hsp47 mRNA; myofibroblasts from CCl4 fibrotic liver, FIGS. 20A and B): stronger effect
P4HA3 mRNA expression (P4HA3 mRNA [1]; myofibroblasts from damaged fibrotic liver, FIG. 21-1 B): did not suppress P4HA3 mRNA expression at all

si P4HA3 #1: siRNA #1 against mouse P4HA3, sense/antisense SEQ ID NOs: 1 and 2; ThermoFisher Scientific catalog 4390771, Assay ID s115723 (sense CCACGAGTATGGACAGGAATT; antisense TTCCTGTCCATACTCGTGGAT; listed as DNA, chemistry not given here)
mRNA expression level of P4HA3 reduced to (P4HA3 mRNA [2]; remaining level relative to si Ctrl): less than 5%
P4HA3 mRNA expression (P4HA3 mRNA [2]; versus si Ctrl): very strongly inhibited
expression of P4HA3 mRNA (P4HA3 mRNA [3]): strongly inhibited
Hsp47 mRNA expression (Hsp47 mRNA; myofibroblasts from damaged fibrotic liver, FIG. 21-1 A): slightly suppressed
expression of P4HA3 gene (P4HA3 mRNA [1]; myofibroblasts from CCl4 liver fibrosis model, versus si Ctrl, FIG. 25): almost completely suppressed
mRNA expression of P4HA3 (P4HA3 mRNA [1]; [7]): inhibited
mRNA expression level of 1α1 collagen [4]: reduced to a fraction of their original levels
mRNA expression level of 3α1 collagen [4]: reduced to a fraction of their original levels
mRNA expression level of 14α1 collagen [4]: reduced to a fraction of their original levels
expression of 1α1 collagen mRNA [5]: strongly inhibited
expression of 3α1 collagen mRNA [5]: strongly inhibited
expression of periostin mRNA [5]: strongly inhibited
effect of suppressing the mRNA expression of fibrosis-related factors, si P4HA3 compared with si Hsp47 ([6]; myofibroblasts from CCl4 fibrotic liver, 1α1, 3α1, 8α1, 14α1 collagen, FIG. 20 C to F): stronger effect
effect of suppressing the mRNA expression of fibrosis-related factors, single siRNAs and combination compared ([6]; myofibroblasts from damaged fibrotic liver, 1α1, 1α2, 3α1, 8α1, 14α1 collagen, elastin, FIGS. 21-1 C, D and 21-2 A to D): higher effect
difference in mRNA expression inhibitory effect between si P4HA3 #1 and si P4HA3 #2 for 3α1 collagen and elastin ([6]; myofibroblasts from transiently fibrotic liver, FIG. 9): no significant difference
inhibitory activity for all mRNA expression, si P4HA3 #1 compared with si P4HA3 #2 ([6]; myofibroblasts from transiently fibrotic liver, P4HA3, collagens, elastin, FIG. 9): stronger inhibitory activity than si P4HA3 #2
mRNA expression of 1α1 collagen [6, 7]: inhibited
mRNA expression of other fibrosis-related factors [6, 7]: inhibited
